{
  "source": "patent US6034066A",
  "about": "“Cysteine protease inhibitors for use in treatment of IGE mediated allergic diseases” (Peptide Therapeutics Limited, priority 1995, dated 2000)",
  "data": [
    {"molecular_target": "T1, Der p I (Dermatophagoides pteronyssinus, UniProt P08176)", "T1 construct": "tissue SmithKline-Beecham (crude mite extract); host or cells: house dust mite extract, purified on immobilised anti-Der p I antibody 4C1", "T1 sequence (P08176 99-320)": "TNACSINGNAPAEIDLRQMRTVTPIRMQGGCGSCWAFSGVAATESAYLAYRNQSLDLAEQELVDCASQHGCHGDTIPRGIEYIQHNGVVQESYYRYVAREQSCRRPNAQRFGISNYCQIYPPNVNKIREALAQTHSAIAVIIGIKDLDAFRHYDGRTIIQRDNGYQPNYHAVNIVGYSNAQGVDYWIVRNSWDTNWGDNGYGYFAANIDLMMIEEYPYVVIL", "assay": "Inhibition (inactivation) kinetics of Der p I, fluorogenic substrate assay", "format": "biochemical", "settings": "second order inactivation rate constant; 50 mM potassium phosphate pH 8.25, 1 mM EDTA, 1 mM DTT, 25° C.; purified Der p I", "description": "(§1) All Der-p I enzyme assays were routinely carried out in 50 mM potassium phosphate; pH 8.25 containing 1 mM ethylenediaminetetraaceticacid (EDTA) and 1 mM dithiothreitol (DTT). Product formation was monitored with respect to time by measuring the increase in fluorescence emission at 420 nm and exciting at 320 nm. All assays were carried out at 25° C. Stock solutions of the various substrates and/or inhibitors were made up in 100% dimethylsulphoxide (DMSO).\n(§2) The reaction of enzyme and inhibitor is comprised of two steps. The first is binding of enzyme and inhibitor to produce the enzyme inhibitor complex (E.I). This step is assumed to be rapid and reversible, relative to the other steps, and no chemical reaction occurs. In this case k1 is the second order rate constant for the formation of the E.I complex and k-1 is the first order rate constant for the breakdown of the E.I. The second step in the process, occurring at a rate k2, is the formation of the enzyme-inhibitor covalent complex (EI) resulting in irreversible inactivation of the enzyme.\n(§3) The practice of inactivation kinetics of enzymes have been described by two standard accepted methods (Schemes 1 and 2). The first (Scheme 1) is the dilution method described by Kitz, C. G. and Wilson, I. B., (1962), J. Biol. Chem., 237, 3245-3249. In this case enzyme and inhibitor are pre-incubated for a set period of time prior to quenching of this reaction by the addition of an excess of substrate. The second method (Scheme 2), is monitoring enzyme inactivation in the presence of substrate and irreversible inhibitors. This method has been described previously (Tian, W. -X. & Tsou, C. -L, (1982), Biochemistry, 21, 1028-1032; Morrison, J. F. & Walsh, C. T., (1988), Adv. Enzymol. Relat. Areas Mol. Biol., 61, 201-301) and the equations describing the kinetics are shown below (Eq. 1, 2 and 3). In both cases the inhibitor concentration employed is at least 10 times greater than the enzyme concentration in order to maintain pseudo-first order conditions.\n(§4) kapp =k2 [I]/1+[S]/KM [I]+K1) Eq. 1\n(§5) [Product]=vs t+(v0 -v5)[1-exp(-kapp t)]/kapp +dEq.\n(§6) second order rate constant=(kapp /[I])(1+[S]/KM) Eq. 3\n(§7) The apparent inactivation rate constant (kapp) was calculated using Eq. 2; where vo is the initial velocity of the reaction, vs is asymptotic steady-state velocity of the reaction, d is the intercept at time zero. The second order rate was calculated using Eq. 3.\n(§8) Assays were routinely carried out in 50 mM potassium phosphate; pH 8.25 containing 1 mM ethylenediaminetetraaceticacid (EDTA) and 1 mM dithiothreitol (DTT). The fluorogenic substrate was 2-aminobenzoylvalylalanylnorleucylseryl-(3-nitro)tyrosinyl aspartylamide. Product formation was monitored with respect to time by measuring the increase in fluorescence emission at 420 nm and exciting at 320 nm. Assays were carried out at 25° C. Stock solutions of the various inhibitors were made up in 100% dimethylsulphoxide.\n(§9) Inactivation kinetics for various inhibitors were carried out using the techniques already described. In the dilution method, generally 100 nM Der p I was mixed and incubated with 0.5-10 uM of the inhibitor and aliquots were taken out at given time points (sampling time) and the residual enzyme activity determined by a ten-fold dilution into assay buffer containing saturating amounts of substrate. The residual activity was related to the sampling time and the curve fitted by computational non-linear least square regression analysis. In cases where the second order rate constants were greater than 10^5 M^-1 s^-1, second order conditions were employed (i.e. equimolar amounts of enzyme and inhibitor). Generally stoichiometric amounts of enzyme and inhibitor were incubated for given time intervals (sampling time) and the reaction stopped by a ten-fold dilution of this mixture by saturating amounts of substrate in assay buffer. […]", "values": [
      {"molecule": "CCCC[C@H](NC(=O)[C@H](C)NC(=O)[C@@H](NC(=O)c1ccccc1)C(C)C)C(=O)COC(=O)c1c(F)c(F)c(F)c(F)c1F", "note": "[Compound 8, N-Benzoyl-L-valyl-L-alanyl-L-norleucine 2,3,4,5,6-pentafluoro benzoyloxy methyl ketone]", "kobs /[I]": "> 10^7 M^- s^-1"},
      {"molecule": "CCOC(=O)/C=C/[C@H](CC(C)C)NC(=O)[C@H](C)NC(=O)[C@@H](NC(=O)Nc1ccccc1)C(C)C", "note": "[Compound 29]", "kobs /[I]": "4.6 × 10^3 M^- s^-1"},
      {"molecule": "CCOC(=O)/C=C/[C@H](CC(C)C)NC(=O)[C@H](C)NC(=O)[C@@H](NC(=O)c1ccccc1)C(C)C", "note": "[Compound 26]", "kobs /[I]": "4.1 × 10^3 M^- s^-1"},
      {"molecule": "CCOS(=O)(=O)/C=C/[C@H](CC(C)C)NC(=O)[C@H](C)NC(=O)[C@@H](NC(=O)OC(C)(C)C)C(C)C", "note": "[Compound 40, Ethyl(S)-(E)-3-((tert-butoxycarbonylamino-L-valyl)-L-alanyl)amino-5-methylhexenylsulfonate]", "kobs /[I]": "6.9 × 10^4 M^- s^-1"},
      {"molecule": "CCCC[C@H](NC(=O)[C@H](C)NC(=O)[C@@H](NC(=O)c1ccccc1)C(C)C)C(=O)NOC(=O)c1c(C)cccc1C", "note": "[Compound 16, N-(N-benzoyl-L-valyl-L-alanyl-L-norleucyl)-O-2,6-dimethyl-benzoyl hydroxamate]", "kobs /[I]": "1.6 × 10^4 M^- s^-1"},
      {"molecule": "CCOC(=O)/C=C/[C@H](CC(C)C)NC(=O)[C@H](C)NC(=O)[C@@H](NC(=O)C1c2ccccc2Oc2ccccc21)C(C)C", "note": "[Compound 34]", "kobs /[I]": "1.1 × 10^4 M^- s^-1"},
      {"molecule": "CCOC(=O)/C=C/[C@H](CC(C)C)NC(=O)[C@H](C)NC(=O)[C@@H](NC(=O)N(c1ccccc1)c1ccccc1)C(C)C", "note": "[Compound 30]", "kobs /[I]": "7.5 × 10^3 M^- s^-1"},
      {"molecule": "CCCC[C@H](NC(=O)[C@H](C)NC(=O)[C@@H](NC(=O)c1ccccc1)C(C)C)C(=O)COC(=O)c1c(Cl)cccc1Cl", "note": "[Compound 6, N-Benzoyl-L-valyl-L-alanyl-L-norleucine 2,6-dichlorobenzoyloxymethyl ketone]", "kobs /[I]": "6.8 × 10^7 M^- s^-1"},
      {"molecule": "N-Benzoyl-L-valyl-L-alanyl-L-norleucine 2-furanoxy methyl ketone [Compound 12]", "kobs /[I]": "1.9 × 10^5 M^- s^-1"},
      {"molecule": "CCCC[C@H](NC(=O)[C@H](C)NC(=O)[C@@H](NC(=O)c1ccccc1)C(C)C)C(=O)NOC(=O)c1ccccc1", "note": "[Compound 15, N-(Benzoyl amino-L-valyl-L-alanyl-L-norleucyl)-O-benzoyl hydroxamate]", "kobs /[I]": "1.5 × 10^5 M^- s^-1"},
      {"molecule": "CCCC[C@H](NC(=O)[C@H](C)NC(=O)[C@@H](NC(=O)c1ccccc1)C(C)C)C(=O)COC(=O)[C@@H](COC(C)(C)C)NC(=O)OCc1ccccc1", "note": "[Compound 10, N-Benzoyl-L-valyl-L-alanyl-L-norleucine N-(-benzyloxycarbonyl)-D-serinyl-(O-tert-butyl)oxymethyl ketone]", "kobs /[I]": "1.9 × 10^5 M^- s^-1"},
      {"molecule": "CCCC[C@H](NC(=O)[C@H](C)NC(=O)[C@@H](NC(=O)c1ccccc1)C(C)C)C(=O)COC(=O)c1c(Cl)cccc1Cl", "note": "[Compound 13, N-Benzoyl-L-valyl-L-alanyl-L-norleucine 2,6-dichlorophenylacyloxy methyl ketone]", "kobs /[I]": "6.6 × 10^5 M^- s^-1"},
      {"molecule": "CCOC(=O)/C=C/[C@H](CC(C)C)NC(=O)[C@H](C)NC(=O)[C@@H](NC(=O)c1ccc2c(c1)OCO2)C(C)C", "note": "[Compound 28]", "kobs /[I]": "6.8 × 10^3 M^- s^-1"},
      {"molecule": "CC(C)C[C@@H](/C=C/C(=O)OCC(F)(F)F)NC(=O)[C@H](C)NC(=O)[C@@H](NC(=O)OC(C)(C)C)C(C)C", "note": "[Compound 25]", "kobs /[I]": "3.1 × 10^3 M^- s^-1"},
      {"molecule": "CCCC[C@H](NC(=O)[C@H](C)NC(=O)[C@@H](NC(=O)c1ccccc1)C(C)C)C(=O)COC(=O)c1ccccc1", "note": "[Compound 7, N-Benzoyl-L-valyl-L-alanyl-L-norleucine benzoyloxymethyl ketone]", "kobs /[I]": "3.7 × 10^5 M^- s^-1"},
      {"molecule": "CCCC[C@H](NC(=O)[C@H](C)NC(=O)[C@@H](NC(=O)c1ccccc1)C(C)C)C(=O)COC(=O)c1c(C)cccc1C", "note": "[Compound 4, N-Benzoyl-L-valyl-L-alanyl-L-norleucine 2,6-dimethyl benzoyloxy methyl ketone]", "kobs /[I]": "1.6 × 10^7 M^- s^-1"},
      {"molecule": "CCOC(=O)/C=C/[C@H](CC(C)C)NC(=O)[C@H](C)NC(=O)[C@@H](NC(=O)c1ccccc1C(F)(F)F)C(C)C", "note": "[Compound 27]", "kobs /[I]": "6.3 × 10^3 M^- s^-1"},
      {"molecule": "CCCC[C@H](NC(=O)[C@H](C)NC(=O)[C@@H](NC(=O)c1ccccc1)C(C)C)C(=O)COC(=O)[C@@H](CO)NC(=O)OCc1ccccc1", "note": "[Compound 11, N-Benzoyl-L-valyl-L-alanyl-L-norleucine N(-benzyloxycarbonyl)-D-serinyloxy methyl ketone]", "kobs /[I]": "1.2 × 10^6 M^- s^-1"},
      {"molecule": "CCCC[C@H](NC(=O)[C@H](C)NC(=O)[C@@H](NC(=O)c1ccccc1)C(C)C)C(=O)COC(=O)c1c(C(F)(F)F)cccc1C(F)(F)F", "note": "[Compound 3, N-Benzoyl-L-valyl-L-alanyl-L-norleucine 2,6-bis (trifluoromethyl)benzoyloxymethyl ketone]", "kobs /[I]": "> 10^7 M^- s^-1"},
      {"molecule": "N-Benzoyl-L-valyl-L-alanyl-L-norleucine 1,1-dimethylpropyloxymethyl ketone [Compound 9]", "kobs /[I]": "2.3 × 10^4 M^- s^-1"},
      {"molecule": "CCOC(=O)/C=C/[C@H](CC(C)C)NC(=O)[C@H](C)NC(=O)[C@@H](NC(=O)OC(C)(C)C)C(C)C", "note": "[Compound 23]", "kobs /[I]": "1.7 × 10^3 M^- s^-1"}
    ]},
    {"molecular_target": "T1, Der p I", "assay": "Inhibition (inactivation) kinetics of Der p I, fluorogenic substrate assay", "format": "biochemical", "settings": "second order inactivation rate constant; 50 mM potassium phosphate pH 8.25, 1 mM EDTA, 1 mM DTT, 25° C.; purified Der p I; read-out: kobs /[I]", "description": "as §1, §2, §3, §4, §5, §6, §7, §8, §9", "units": {"kinact/KI": "M⁻¹ s⁻¹"}, "values": [
      {"molecule": "CC(C)C[C@@H](/C=C/S(C)(=O)=O)NC(=O)[C@H](C)NC(=O)[C@@H](NNC(=O)OC(C)(C)C)C(C)C", "note": "[Compound 38, (S)-(E)-3-((tert-butoxycarbonylamino-L-valyl)-L-alanyl)amino-1-methylsulfonyl-5-methyl-1-hexene]", "kinact/KI": 1100},
      {"molecule": "CC(C)C[C@@H](/C=C/S(=O)(=O)c1ccccc1)NC(=O)[C@H](C)NC(=O)[C@@H](NNC(=O)OC(C)(C)C)C(C)C", "note": "[Compound 36, (S)-(E)-3-((tert-butoxycarbonylamino-L-valyl)-L-alanyl)amino-1-phenylsulfonyl-5-methyl-1-hexene]", "kinact/KI": 6400}
    ]}
  ]
}
